Earlier results in PubChem BioAssay AID1259409 (Chemical Carcinogenesis Research Information System (CCRIS), 2018).

System: rodent chemically induced tumor inhibition, incidence and multiplicity
Assay: CCRIS tumor inhibitor studies
Settings: Promoter: NONE USED

Structure (SMILES)	tumour outcome (control, treated, inhibition, significance) (Carcinogen: 7,12-DIMETHYLBENZ[A]ANTHRACENE, 57-97-6, Dose [Inhibitor]: 0, 5% IN A 14% CASEIN DIET BEGINNING 2 WK PRIOR TO CARCINOGEN DOSE AND CONTINUING FOR 21 WK (STUDY DURATION: 23 WK), Route [Inhibitor]: ORAL, Species: RAT, Strain/Sex: SPRAGUE-DAWLEY/FEMALE, Target Tissue: Type of Lesion: MAMMARY GLAND: TUMOR, Dose [Carcinogen]: 7.5 MG IN 0.75 ML SESAME OIL ONCE AT 50 D OF AGE)	tumour outcome (control, treated, inhibition, significance) (Carcinogen: 7,12-DIMETHYLBENZ[A]ANTHRACENE, 57-97-6, Dose [Inhibitor]: 5% L-ARGININE IN DIET STARTING 7 D BEFORE DMBA ADMINISTRATION (STUDY DURATION: 21 WK), Route [Inhibitor]: ORAL, Species: RAT, Strain/Sex: SPRAGUE DAWLEY/FEMALE, Target Tissue: Type of Lesion: MAMMARY GLAND: TUMOR, Dose [Carcinogen]: 15% OIL EMULSION, 25 MG/KG BW ADMINISTERED ONCE)	tumour outcome (control, treated, inhibition, significance) (Carcinogen: 7,12-DIMETHYLBENZ[A]ANTHRACENE, 57-97-6, Dose [Inhibitor]: 5% L-ARGININE IN DIET STARTING 7 D BEFORE DMBA TREATMENT FOR 3 M AND THEN CONTROL DIET (STUDY DURATION: 32 WK), Route [Inhibitor]: ORAL, Species: RAT, Strain/Sex: SPRAGUE DAWLEY/FEMALE, Target Tissue: Type of Lesion: MAMMARY GLAND: TUMOR, Dose [Carcinogen]: 15% OIL EMULSION, 25 MG/KG BW ADMINISTERED ONCE)	tumour outcome (control, treated, inhibition, significance) (Carcinogen: HYDRAZINE SULFATE, 10034-93-2, Dose [Inhibitor]: 1.1 MG/D IN DIET STARTING 1 WK PRIOR TO ADMINISTRATION OF CARCINOGEN UNTIL END OF EXPERIMENT (STUDY DURATION: APPROXIMAT, Route [Inhibitor]: ORAL, Species: MOUSE, Strain/Sex: SWISS/MALE, FEMALE, Target Tissue: Type of Lesion: LIVER AND LUNG: COMBINED TUMORS, Dose [Carcinogen]: 1.1 MG/D 5 D/WK UNTIL 12 MO OF AGE)	tumour outcome (control, treated, inhibition, significance) (Carcinogen: ISONIAZID, 54-85-3, Dose [Inhibitor]: 1.1 MG/MOUSE/D SIMULTANEOUS WITH CARCINOGEN 6 D/WK (STUDY DURATION: 24 MO), Route [Inhibitor]: INTRAGASTRIC, Species: MOUSE, Strain/Sex: SWISS/MALE, Target Tissue: Type of Lesion: LUNG: TUMOR, Dose [Carcinogen]: 1.1 MG/MOUSE/D SIMULTANEOUS WITH INHIBITOR)	tumour outcome (control, treated, inhibition, significance) (Carcinogen: N-METHYL-N-NITROSOUREA, 684-93-5, Dose [Inhibitor]: 0, 5% IN A 14% CASEIN DIET BEGINNING 2 WK PRIOR TO CARCINOGEN DOSE AND CONTINUING FOR 21 WK (STUDY DURATION: 23 WK), Route [Inhibitor]: ORAL, Species: RAT, Strain/Sex: SPRAGUE-DAWLEY/FEMALE, Target Tissue: Type of Lesion: MAMMARY GLAND: TUMOR, Dose [Carcinogen]: 4 MG/100 G BW ONCE AT 50 D OF AGE)	tumour outcome (control, treated, inhibition, significance) (Carcinogen: 4-(METHYLNITROSAMINO)-1-(3-PYRIDYL)-1-BUTANONE, 64091-91-4, Dose [Inhibitor]: 0, 0.04 UMOL ONCE 2 HR PRIOR TO CARCINOGEN DOSE (STUDY DURATION: 16 WK), Route [Inhibitor]: GAVAGE, Species: MOUSE, Strain/Sex: STRAIN-A/FEMALE, Target Tissue: Type of Lesion: LUNG: ADENOMA, Dose [Carcinogen]: 10 UMOL IN 0.1 ML SALINE ONCE)	tumour outcome (control, treated, inhibition, significance) (Carcinogen: 4-(METHYLNITROSAMINO)-1-(3-PYRIDYL)-1-BUTANONE, 64091-91-4, Dose [Inhibitor]: 0, 0.1 UMOL ONCE 2 HR PRIOR TO CARCINOGEN DOSE (STUDY DURATION: 16 WK), Route [Inhibitor]: GAVAGE, Species: MOUSE, Strain/Sex: STRAIN-A/FEMALE, Target Tissue: Type of Lesion: LUNG: ADENOMA, Dose [Carcinogen]: 10 UMOL IN 0.1 ML SALINE ONCE)	tumour outcome (control, treated, inhibition, significance) (Carcinogen: 4-(METHYLNITROSAMINO)-1-(3-PYRIDYL)-1-BUTANONE, 64091-91-4, Dose [Inhibitor]: 0, 0.2 UMOL ONCE 2 HR PRIOR TO CARCINOGEN DOSE (STUDY DURATION: 16 WK), Route [Inhibitor]: GAVAGE, Species: MOUSE, Strain/Sex: STRAIN-A/FEMALE, Target Tissue: Type of Lesion: LUNG: ADENOMA, Dose [Carcinogen]: 10 UMOL IN 0.1 ML SALINE ONCE)
NC(N)=NCCC[C@H](N)C(=O)O	24/30 (80%), 22/30 (73%), 8%, not significant	95%, 25%, 74%, not calculated	100%, 80%, 20%, not calculated	24/29 (83%), 11/18 (61%), 26%, not significant	15/29 (52%), 3/10 (30%), 42%, not significant	28/30 (93%), 27/30 (90%), 3%, not significant	–	–	–
S=C=NCCCCCCCCCCc1ccccc1	–	–	–	–	–	–	100%, 100%, 0%, not significant	100%, 100%, 0%, not significant	100%, 70%, 30%, p<0.05
